Read-outs that look alike come from different tables or passages of the source.
Legend:
[1] = test system: MV-4-11 cells; assay: CellTiter-Glo cell viability assay, MV-4-11; assay type: cell-based, human; conditions: 24 h
Method: Cell Viability Assay. MV-4-11 cells were plated at a density of 2×10^4 cell per well of a 96 well white-bottom plate, and left to grow overnight in 50 μl of IMDM (Invitrogen, arlsebad, CA, USA) supplemented with 10% (v/v) Fetal bovine serum (FBS) (Thermo Fisher, Waltham, MA, USA) and 1% (v/v) penicillin/streptomycin (pen/strep) (#15140122, Thermo Fisher, Waltham, MA, USA) at 37° C., 5% CO2, and 95% humidity. […] These cells were then left to incubate at 37° C., 5% CO2, and 95% humidity for one day prior to undergoing spectrophotometric analysis. 22RV1 cells were plated at a density of 2×10^4 cell per well of a 96 well white-bottom plate, and left to grow overnight in 100 μL of RPMI-1640 (Invitrogen, Carlsebad, CA, USA) supplemented with 10% (v/v) fetal bovine serum (FBS) (Thermo Fisher, Waltham, MA, USA) and 1% (v/v) penicillin/streptomycin (pen/strep) (#15140122, Thermo Fisher, Waltham, MA, USA) at 37° C., 5% CO2, and 95% humidity. […] Plates were subjected to 2 mins on an orbital shaker to encourage lysis and left for a further 5 mins to reach peak luminescence. Luminescence was then recorded on a BMG Labtech PHERAstar luminescence plate reader with recommended settings. Data extracted from this analysis was analysed with Graphpad Prism (v. 8.2.0, GraphPad) and normalized to the DMSO vehicle control. […]

[2] = mice, values obtained from ref., cited from earlier work
[3] = biological target: wild-type Brd4^BD2 (Homo sapiens, UniProt O60885); conditions: cited from earlier work
[4] = test system: BRD2 in Bromotag-BRD2 CRISPR knock-in HEK293 cells; assay: TMT labeling mass spectrometry proteomics, tagged target; assay type: cell-based, human; conditions: 1 μM, 2 h; >6,621 proteins quantified
Method: (§1) Sample processing, TMT labelling and fractionation. CRISPR modified BromoTag-Brd2 HEK293 cells were seeded 5×10^6 cells on a […] 24 h before treatment. Cells were treated with either DMSO, 1 μM AGB1 or 1 μM cis-AGB1. 2 h post-treatment, the cells were washed twice with PBS. Cells were lysed in 150 μL of 100 mM TEAB, 5% (w/v) SDS. The lysate was sonicated for 10 s and then centrifuged at 15,000 g for 5 min with the supernatant collected post-centrifugation. Samples were then quantified using a micro-BCA protein assay kit (Thermo Fisher Scientific); 300 μg of each sample were then reduced, alkylated and then digested using Strap mini protocol (Protifi) protocol as described by the manufacturer (protifi) with some modification. Samples were double digested with trypsin (1:40) first overnight then for another 6 hrs with the same ratio (1:40) in 50 mM TEAB buffer. Peptides were quantified using a quantitative fluorometric peptide assay (Thermo Fisher Scientific). The samples (90 μg each) were labelled with a TMT 10-plex Isobaric Label Reagent set (Thermo Fisher Scientific) as per the manufacturer's instructions. After labelling, samples were checked for labelling efficiency, then mixed, desalted, and dried in a speed-vac at 30° C. Samples were re-dissolved in 200 μl ammonium formate (10 mM, pH 9.5) and peptides were fractionated using High pH RP Chromatography. […]

[5] = test system: BRD3, BRD4 or any other endogenous protein; assay: TMT labeling mass spectrometry proteomics, off-targets; assay type: cell-based, human; conditions: 1 μM, 2 h; >6,621 proteins quantified
Method: as §1

[6] = test system: Brd2, Brd3 and Brd4; assay: First generation screen at 1 μM, 6 h: BET protein levels (western blot); assay type: cell-based, human
Method: Western Blotting. All cells were harvested on ice with RIPA lysis, and extraction buffer (ThermoFisher Scientific, 89901) supplemented with protease inhibitor cocktail (Merck, 11697498001) and Benzonase® Nuclease (Sigma, E1014) before being store at −20° C. prior to use. Total protein quantity was determined using the BCA protein assay (#23225, Pierce, Rockford, Illinois). Protein concentration was determined using the BCA assay (ThermoFisher Scientific, 23225). Samples were then prepared and loaded onto NuPAGE™ 4-12% Bis-Tris Midi gels (ThermoFisher Scientific, WG1403A), followed by the transfer of the proteins onto nitrocellulose membranes (EMD Millipore). […] All western blots were analysed for band intensities using Image Lab from Bio-Rad (LI-COR, Biosciences). The data extracted from these blots were then plotted and analysed using Prism (v. 8.2.0, GraphPad).
With this initial library in hand, we set out to evaluate the activity and selectivity of our I-BET-based B&H-PROTACs by treating our heterozygous BromoTag-Brd2 HEK293 cells with 1 μM of compounds 15-17 or 1 μM of control compounds MZP-15 (14), MZ1 (1) and cis-MZ1 for 6 h, which is sufficient time to achieve effective MZ1-induced BET protein degradation (FIG. 4A). Cells were harvested, and the subsequent lysate was analysed via western blot using antibodies against BET proteins; Brd2, Brd3 and Brd4 (FIG. 4A).

Cc1ncsc1-c1ccc(CNC(=O)[C@@H]2C[C@@H](O)CN2C(=O)[C@@H](NC(=O)COCCOCCOCCNC(=O)C[C@@H]2N=C(c3ccc(Cl)cc3)c3c(sc(C)c3C)-n3c(C)nnc32)C(C)(C)C)cc1 [MZ1 (1)]
EC50 [1]: ~20 nM | T1/2 ([2]; IV (5 mg/kg), 5 mg/kg): 1.04 h | AUCinf ([2]; IV (5 mg/kg)): 4.51 µM·h | CL ([2]; IV (5 mg/kg)): 19.7 mL/min/kg | MRTinf ([2]; IV (5 mg/kg)): 0.340 h | Vss ([2]; IV (5 mg/kg)): 0.38 L/kg | T1/2 ([2]; IV (5 mg/kg), listed as 1, 5 mg/kg): 1.05 h | AUCinf ([2]; SC (5 mg/kg)): 3.76 µM·h | F (%) ([2]; SC (5 mg/kg)): 83% | T1/2 ([2]; SC (5 mg/kg)): 2.95 h

CC[C@@H](C(=O)OC)[C@@H]1N=C(c2ccc(Cl)cc2)c2c(sc(C)c2C)-n2c(C)nnc21 [ET-JQ1-OMe]
binding to the wild-type domain [3]: undetectable binding

(S)-13-((2S,4R)-4-hydroxy-2-((4-(4-methylthiazol-5-yl)benzyl)carbamoyl)pyrrolidine-1-carbonyl)-14,14-dimethyl-11-oxo-3,6,9-trioxa-12-azapentadecyl (R)-2-((S)-4-(4-chlorophenyl)-2,3,9-trimethyl-6H-thieno[3,2-f][1,2,4]triazolo[4,3-a][1,4]diazepin-6-yl)butanoate [AGB1 (46)]
BRD2 protein abundance (proteomics) [4]: most significantly degraded | depletion of BRD3, BRD4 or any other endogenous protein (proteomics) [5]: no detectable depletion

CC[C@@H](C(=O)OCCOCCOCCOCC(=O)N[C@H](C(=O)N1C[C@@H](O)C[C@H]1C(=O)NCc1ccc(-c2scnc2C)cc1)C(C)(C)C)[C@@H]1N=C(c2ccc(Cl)cc2)c2c(sc(C)c2C)-n2c(C)nnc21 [cis-AGB1, (S)-13-((2S,4S)-4-hydroxy-2-((4-(4-methylthiazol-5-yl)benzyl)carbamoyl)pyrrolidine-1-carbonyl)-14,14-dimethyl-11-oxo-3,6,9-trioxa-12-azapentadecyl (R)-2-((S)-4-(4-chlorophenyl)-2,3,9-trimethyl-6H-thieno[3,2-f][1,2,4]triazolo[4,3-a][1,4]diazepin-6-yl)butanoate]
BRD2 protein abundance (proteomics) [4]: No significant changes

COc1ccc2c(c1)C(c1ccc(Cl)cc1)=NC(CC(=O)NCCOCCOCCOCC(=O)N[C@H](C(=O)N1C[C@H](O)C[C@H]1C(=O)NCc1ccc(-c3scnc3C)cc1)C(C)(C)C)c1nnc(C)n1-2 (stereo partly drawn) [MZP-15 (14), (2S,4R)-1-((2S)-2-(tert-butyl)-17-(6-(4-chlorophenyl)-8-methoxy-1-methyl-4H-benzo[fj][1,2,4]triazolo[4,3-a][1,4]diazepin-4-yl)-4,16-dioxo-6,9,12-trioxa-3,15-diazaheptadecanoyl)-4-hydroxy-N-(4-(4-methylthiazol-5-yl)benzyl)pyrrolidine-2-carboxamide]
activity across all three BET family members relative to 1 [6]: significant lower activity
